Measured values reported in patent US20160250303A1, “PERFORIN-2 ACTIVATORS AND INHIBITORS AS DRUG TARGETS FOR INFECTIOUS DISEASE AND GUT INFLAMMATION” (UNIVERSITY OF MIAMI, priority 2013, published 2016).

Tested on: P-2 mediated bacterial killing
Assay: Perforin-2 mediated killing of MRSA by BV2 phagocytic cells in vitro (FIG. 14c)
Conditions: phagocytic cell BV2, in vitro, listed as MLN4294

SMILES: NS(=O)(=O)OC[C@@H]1CC(n2ccc3c(N[C@H]4CCc5ccccc54)ncnc32)C[C@@H]1O (stereo partly shown) [MLN 4924]
- P-2 mediated bacterial killing: blocked
